Laboratory results published in BindingDB's records for PubMed 34843914 (China Pharmaceutical University, 2022).
pIC50: −log10 of the molar value.

Target: Poly [ADP-ribose] polymerase 1 (Homo sapiens, UniProt P09874)
Assay: Inhibition of PARP1 (unknown origin)

Poly [ADP-ribose] polymerase 1, sequence (P09874 whole entry): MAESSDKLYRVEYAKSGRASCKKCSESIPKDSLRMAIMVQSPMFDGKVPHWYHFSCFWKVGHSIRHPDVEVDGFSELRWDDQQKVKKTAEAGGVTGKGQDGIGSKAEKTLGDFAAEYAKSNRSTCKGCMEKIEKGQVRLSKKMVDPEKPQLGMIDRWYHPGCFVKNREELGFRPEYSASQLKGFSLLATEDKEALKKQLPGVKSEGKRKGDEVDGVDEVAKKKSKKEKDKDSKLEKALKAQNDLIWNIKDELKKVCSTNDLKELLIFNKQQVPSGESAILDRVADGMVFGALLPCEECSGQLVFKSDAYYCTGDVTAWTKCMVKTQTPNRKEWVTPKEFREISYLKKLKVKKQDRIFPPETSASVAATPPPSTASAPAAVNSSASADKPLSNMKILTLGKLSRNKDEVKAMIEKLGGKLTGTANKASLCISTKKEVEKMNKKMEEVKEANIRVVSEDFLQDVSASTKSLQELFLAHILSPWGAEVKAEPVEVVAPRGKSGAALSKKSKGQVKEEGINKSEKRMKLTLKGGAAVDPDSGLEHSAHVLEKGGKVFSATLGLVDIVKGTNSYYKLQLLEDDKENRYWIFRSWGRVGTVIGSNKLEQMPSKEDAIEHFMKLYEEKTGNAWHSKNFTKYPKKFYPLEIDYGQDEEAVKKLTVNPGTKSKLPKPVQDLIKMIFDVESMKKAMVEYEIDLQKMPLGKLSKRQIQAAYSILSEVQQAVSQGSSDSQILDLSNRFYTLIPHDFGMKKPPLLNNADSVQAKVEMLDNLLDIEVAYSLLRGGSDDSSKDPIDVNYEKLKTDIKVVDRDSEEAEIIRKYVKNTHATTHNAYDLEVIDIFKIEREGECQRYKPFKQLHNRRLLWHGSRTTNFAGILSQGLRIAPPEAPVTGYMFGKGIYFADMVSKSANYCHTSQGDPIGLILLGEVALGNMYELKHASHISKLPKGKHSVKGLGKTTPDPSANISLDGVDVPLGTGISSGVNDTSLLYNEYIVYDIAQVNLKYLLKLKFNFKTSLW

SMILES: O=c1cc(O)cc2oc(-c3ccc(O)c(-c4c(O)cc(O)c5c(=O)cc(-c6ccc(O)cc6)oc45)c3)cc(O)c1-2
- pIC50: 6.59
